Earlier results, collected in US7816398B2, “Fatty alcohol drug conjugates” (Luitpold Pharmaceuticals, Inc., priority 2001, dated 2010).

Conditions: relative to irinotecan

CCc1c2c(nc3ccc(O)cc13)-c1cc3c(c(=O)n1C2)COC(=O)[C@]3(O)CC [SN-38]
times more potent than Irinotecan: ~100 times
